Patent US20210275657A1, “NEOANTIGENS AND USES THEREOF” (BioNTech US Inc., priority 2018, published 2021)
Where two headings read alike, the source gives them in different places. Where a SMILES comes first, the peptide text is derived from it. Where no end group is shown, it is not given here.

Columns and labels:
[1] = test system: indicated HLA alleles; experiment: Stability of mutant EGFR neopeptides with the HLA alleles; format: binding, human; conditions: EGFR_T790M
Method: (§1) Multiple peptides containing neoepitopes in the table below were either expressed or loaded onto antigen presenting cells. Mass spectrometry was then performed and the affinity of the neoepitopes for indicated HLA alleles were determined, and the stability of the neoepitopes with the HLA alleles were determined.

[2] = test system: indicated HLA alleles; experiment: Stability of mutant BTK neopeptides with the HLA alleles; format: binding, human; conditions: BTK_C481S
Method: as §1

[3] = for Solubility in […] SS in D5W w/ 4% DMSO: […] sodium succinate in D5W; for solubility: without DMSO; for Solubility in […] SS in D5W w/o DMSO / Solubility in Poly ICLC + […] SS in D5W w/o DMSO: no DMSO; for solubility in low SS: lower SS concentration ([…] SS/D5W)
Method: All buffers were prepared daily. […] Peptides were weighed into 15 mL or 50 mL conical tubes using a Mettler Toledo XP105 Delta Mass analytical balance and the actual gross weight was recorded and used to determine how much DMSO to obtain 50 mg/mL. The calculation is shown below:
DMSO (μL)=(Actual gross weight (mg)*264 μl)/(Target gross weight (mg)) Equation 4.
The stock was then diluted to 2 mg/mLL (1 part DMSO stock, 24 parts buffer) in the appropriate formulation buffer.
Peptides weights and percent content were calculated as described above and the appropriate buffer was added directly to the peptides. The target gross weight calculated using Eq. 3 and the volume of buffer used to obtain 2 mg/mL peptide was calculated using Equation 5.
Buffer (ml)=(Actual gross weight (mg)*6.6 mL)/(Target gross weight (mg)) Equation 5.
Peptides were further diluted 1:4 with buffer to obtain 0.4 mg/mL or, only when indicated, was buffer added directly to the dry peptide to obtain 0.4 mg/mL. In the latter case, Equation 6 to determine the appropriate volume to add.
Buffer (ml)=(Actual gross weight (mg)*33 mL)/(Target gross weight (mg)) Equation 6.
The peptides were dissolved by inverting the conical tubes and not by sonicating or vortexing them.
To pool 5 peptides, equal volume from each 2 mg/mL stock was combined to obtain 0.4 mg/mL of each peptide. In the case of pools with less than 5 peptides, equal volumes of the peptides were combined then the solution was diluted with the appropriate buffer to obtain 0.4 mg/mL of each peptide. The pools were inverted 3-5 times to mix. The formulated peptides were transferred to glass vials to visualize solubility. Photographs were taken every two hours to note any changes in appearance.
Pools were combined at a 3:1 ratio of peptide to polyICLC using 150 μL polyICLC with 450 μL peptide pool in a 2 mL glass vial. The solution was inverted 3-5 times to mix and photographs were taken every two hours for 6 hours to note any changes in appearance. All pH measurements were made using a Mettler Toledo inLab Micro pH meter, which was calibrated every day before use. 100 μL of the sample being analyzed was removed and added to a microcentrifuge tube to measure the pH. The sample was then discarded. Samples by UPLC-MS (Waters Acquity H-Class with an Acquity QDa mass spectrometer). A 2 μL injection of each sample was analyzed in duplicate using an 8 minute gradient from 10:90 solvent A:B to 50:50 solvent A:B (A:0.1% TFA/water, B: 0.1% TFA:acetonitrile).

Molecule: CC[C@H](C)[C@H](N)C(=O)N[C@@H](CCSC)C(=O)N[C@@H](CCC(N)=O)C(=O)N[C@@H](CC(C)C)C(=O)N[C@@H](CCSC)C(=O)N1CCC[C@H]1C(=O)N[C@@H](Cc1ccccc1)C(=O)NCC(=O)N[C@@H](CS)C(=O)N[C@@H](CC(C)C)C(=O)O
- Stability (1/2 hr) ([1]; HLA A02.01): 0.5156 h
- Stability (1/2 hr) ([1]; HLA A24.02): 0 h
- Stability (1/2 hr) ([1]; HLA B08.01): 0 h

Molecule: CSCC[C@H](N)C(=O)N[C@@H](C)C(=O)N[C@@H](CC(N)=O)C(=O)NCC(=O)N[C@@H](CO)C(=O)N[C@@H](CC(C)C)C(=O)N[C@@H](CC(C)C)C(=O)N[C@@H](CC(N)=O)C(=O)N[C@@H](Cc1ccc(O)cc1)C(=O)N[C@@H](CC(C)C)C(=O)O
- Stability (1/2 hr) ([2]; HLA A02.01): 0 h
- Stability (1/2 hr) ([2]; HLA B07.02): 0 h
- Stability (1/2 hr) ([2]; HLA B08.01): 0 h

Molecule: CSCC[C@H](NC(=O)[C@H](CC(C)C)NC(=O)[C@H](CCC(N)=O)NC(=O)[C@@H](N)CCSC)C(=O)N1CCC[C@H]1C(=O)N[C@@H](Cc1ccccc1)C(=O)NCC(=O)N[C@@H](CS)C(=O)N[C@@H](CC(C)C)C(=O)O
- Stability (1/2 hr) ([1]; HLA A02.01): 0.3683 h
- Stability (1/2 hr) ([1]; HLA B07.02): 0 h
- Stability (1/2 hr) ([1]; HLA B08.01): 0 h

Molecule: CSCC[C@H](NC(=O)[C@H](CC(C)C)NC(=O)[C@H](CCC(N)=O)NC(=O)[C@@H](N)CCSC)C(=O)N1CCC[C@H]1C(=O)N[C@@H](Cc1ccccc1)C(=O)NCC(=O)N[C@@H](CS)C(=O)N[C@@H](CC(C)C)C(=O)N[C@@H](CC(C)C)C(=O)O
- Stability (1/2 hr) ([1]; HLA A02.01): 0.3811 h
- Stability (1/2 hr) ([1]; HLA A24.02): 0 h
- Stability (1/2 hr) ([1]; HLA B08.01): 0 h

Molecule: CC[C@H](C)[C@H](NC(=O)[C@H](CC(C)C)NC(=O)[C@@H](N)CCC(N)=O)C(=O)N[C@@H](CCSC)C(=O)N[C@@H](CCC(N)=O)C(=O)N[C@@H](CC(C)C)C(=O)N[C@@H](CCSC)C(=O)N1CCC[C@H]1C(=O)N[C@@H](Cc1ccccc1)C(=O)O
- Stability (1/2 hr) ([1]; HLA A02.01): 0.3407 h
- Stability (1/2 hr) ([1]; HLA A24.02): 0.3687 h
- Stability (1/2 hr) ([1]; HLA B08.01): 0 h

Molecule: CC[C@H](C)[C@H](NC(=O)[C@H](CC(C)C)NC(=O)[C@H](CCC(N)=O)NC(=O)[C@@H](N)C(C)C)C(=O)N[C@@H](CCSC)C(=O)N[C@@H](CCC(N)=O)C(=O)N[C@@H](CC(C)C)C(=O)N[C@@H](CCSC)C(=O)N1CCC[C@H]1C(=O)N[C@@H](Cc1ccccc1)C(=O)O
- Stability (1/2 hr) ([1]; HLA A02.01): 0 h
- Stability (1/2 hr) ([1]; HLA A24.02): 0 h
- Stability (1/2 hr) ([1]; HLA B08.01): 0 h

Molecule: CSCC[C@H](N)C(=O)N[C@@H](Cc1ccccc1)C(=O)N[C@@H](C)C(=O)N[C@H](C(=O)N[C@@H](CC(C)C)C(=O)N[C@@H](CCC(N)=O)C(=O)N[C@@H](CCCNC(=N)N)C(=O)N[C@@H](CO)C(=O)N[C@@H](CO)C(=O)N[C@@H](CC(C)C)C(=O)N[C@@H](Cc1c[nH]c2ccccc12)C(=O)N[C@@H](CS)C(=O)N[C@@H](CC(C)C)C(=O)N[C@@H](CS)C(=O)N[C@@H](CO)C(=O)N[C@@H](CC(N)=O)C(=O)N[C@@H](Cc1c[nH]cn1)C(=O)O)[C@@H](C)O [Peptide 12b] (H-MFATLQRSSLWCLCSNH-OH)
- Solubility in 0.5 mM SS in D5W w/ 4% DMSO ([3]; 0.5 mM sodium succinate in D5W, 4% DMSO, no polyICLC): Yes
- Solubility in […] SS in D5W w/ 4% DMSO ([3]; 4% DMSO, no polyICLC): Yes
- Solubility in Poly ICLC + […] SS in D5W w/ 4% DMSO ([3]; with polyICLC, 4% DMSO): No

Molecule: CC[C@H](C)[C@H](NC(=O)[C@H](CCCCN)NC(=O)[C@H](CO)NC(=O)[C@@H](N)CCC(=O)O)C(=O)N[C@@H](CCSC)C(=O)N[C@@H](Cc1ccccc1)C(=O)N[C@@H](C)C(=O)N[C@H](C(=O)N[C@@H](CC(C)C)C(=O)N[C@@H](CCC(N)=O)C(=O)N[C@@H](CCCNC(=N)N)C(=O)N[C@@H](CO)C(=O)N[C@@H](CO)C(=O)N[C@@H](CC(C)C)C(=O)O)[C@@H](C)O [Peptide L11i]
- solubility ([3]; 0.4 mg/mL, D5W with all SS concentrations tested): soluble
- solubility ([3]; 2 mg/mL in the higher SS concentration, D5W): Some precipitation
- Solubility in […] SS in D5W w/o DMSO ([3]; no polyICLC): Yes
- solubility in low SS [3]: soluble
- Solubility in Poly ICLC + […] SS in D5W w/o DMSO ([3]; with polyICLC): Yes

Molecule: CSCC[C@H](N)C(=O)N[C@@H](Cc1ccccc1)C(=O)N[C@@H](C)C(=O)N[C@H](C(=O)N[C@@H](CC(C)C)C(=O)N[C@@H](CCC(N)=O)C(=O)N[C@@H](CCCNC(=N)N)C(=O)N[C@@H](CO)C(=O)N[C@@H](CO)C(=O)N[C@@H](CC(C)C)C(=O)N[C@@H](Cc1c[nH]c2ccccc12)C(=O)N[C@@H](CS)C(=O)N[C@@H](CC(C)C)C(=O)N[C@@H](CS)C(=O)O)[C@@H](C)O [Peptide L12c]
- Solubility in […] SS in D5W w/ 4% DMSO ([3]; 4% DMSO, no polyICLC): No

Molecule: CC(C)C[C@H](NC(=O)[C@H](CS)NC(=O)[C@H](Cc1c[nH]c2ccccc12)NC(=O)[C@H](CC(C)C)NC(=O)[C@H](CO)NC(=O)[C@H](CO)NC(=O)[C@H](CCCNC(=N)N)NC(=O)[C@H](CCC(N)=O)NC(=O)[C@H](CC(C)C)NC(=O)[C@@H](N)[C@@H](C)O)C(=O)N[C@@H](CS)C(=O)N[C@@H](CO)C(=O)N[C@@H](CC(N)=O)C(=O)N[C@@H](Cc1c[nH]cn1)C(=O)O [Peptide L12d] (H-TLQRSSLWCLCSNH-OH)
- solubility ([3]; 5 mM SS, after 6 hours): soluble
- Solubility in […] SS in D5W w/o DMSO ([3]; no polyICLC): Yes
- Solubility in […] SS in D5W w/ 4% DMSO ([3]; 4% DMSO, no polyICLC): Yes
- Solubility in Poly ICLC + 5 mM SS in D5W w/ 4% DMSO ([3]; with polyICLC, 5 mM SS in D5W, 4% DMSO): Yes
- Solubility in Poly ICLC + […] SS in D5W w/ 4% DMSO ([3]; with polyICLC, 4% DMSO): Yes

Molecule: CC[C@H](C)[C@H](NC(=O)[C@H](CCCCN)NC(=O)[C@H](CO)NC(=O)[C@H](CCC(=O)O)NC(=O)[C@H](C)NC(=O)[C@H](CCCCN)NC(=O)[C@H](CC(C)C)NC(=O)[C@H](Cc1ccccc1)NC(=O)[C@H](CCSC)NC(=O)[C@H](Cc1ccc(O)cc1)NC(=O)CNC(=O)[C@H](CC(=O)O)NC(=O)[C@H](CCCNC(=N)N)NC(=O)[C@H](CCCCN)NC(=O)[C@@H]1CCCN1C(=O)[C@@H](N)CCCCN)C(=O)N[C@@H](CCSC)C(=O)N[C@@H](Cc1ccccc1)C(=O)N[C@@H](C)C(=O)N[C@H](C(=O)N[C@@H](CC(C)C)C(=O)N[C@@H](CCC(N)=O)C(=O)N[C@@H](CCCNC(=N)N)C(=O)N[C@@H](CO)C(=O)N[C@@H](CO)C(=O)N[C@@H](CC(C)C)C(=O)N[C@@H](Cc1c[nH]c2ccccc12)C(=O)N[C@@H](CS)C(=O)N[C@@H](CC(C)C)C(=O)N[C@@H](CS)C(=O)N[C@@H](CO)C(=O)N[C@@H](CC(N)=O)C(=O)N[C@@H](Cc1c[nH]cn1)C(=O)O)[C@@H](C)O [Peptide L15] (H-KPKRDGYMFLKAESKIMFATLQRSSLWCLCSNH-OH; N-terminus and C-terminus assumed)
- solubility ([3]; 0.4 mg/mL in […] SS, after 6 hours): soluble
- solubility in 5 mM SS ([3]; 5 mM SS (higher SS concentration) in D5W): not soluble
- Solubility in […] SS in D5W w/o DMSO ([3]; no polyICLC): Yes
- solubility in low SS [3]: soluble
- Solubility in Poly ICLC + […] SS in D5W w/o DMSO ([3]; with polyICLC): Yes

Molecule: DGYMFLKAESKIMFAT [Peptide L11e]
- Solubility in […] SS in D5W w/ 4% DMSO ([3]; 4% DMSO, no polyICLC): No
